Experimental data as given in the NIST ThermoML archive (doi:10.1021/acs.jced.6b00121).
Where “and” joins values, the source holds several entries; their conditions need not be identical. Equal values may be shown once.

Experiments:
[1] = 100 kPa, Liquid; for viscosity: Falling or rolling sphere viscometry; for mass density: Vibrating tube method
[2] = xn = mol fraction of the nth substance listed; conditions: 100 kPa, Liquid, x2 = 0; for viscosity: Falling or rolling sphere viscometry; for mass density: Vibrating tube method

CCCCO [butan-1-ol]
[1]
Conditions | mass density [kg/m3] | viscosity [mPa·s]
283.15 K | 817.07 | 4.046
288.15 K | 813.32 | 3.514
293.15 K | 809.55 | 3.066
298.15 K | 805.76 | 2.59
303.15 K | 801.94 | 2.28
308.15 K | 798.09 | 2.015
313.15 K | 794.2 | 1.786
318.15 K | 790.27 | 1.589
323.15 K | 786.3 | 1.427
328.15 K | 782.27 | 1.278
333.15 K | 778.18 | 1.147
338.15 K | 774.03 | 1.032
343.15 K | 769.8 | 0.934
348.15 K | 765.49 | 0.842
353.15 K | 761.12 | 0.762
358.15 K | 756.64 | 0.693
363.15 K | 752.08 | 0.633

CCCCO [butan-1-ol] + CCCCCCCCCCC
[2]
Conditions | mass density [kg/m3] | viscosity [mPa·s]
283.15 K | 817.07 | 4.046
288.15 K | 813.32 | 3.514
293.15 K | 809.55 | 3.066
298.15 K | 805.76 | 2.59
303.15 K | 801.94 | 2.28
308.15 K | 798.09 | 2.015
313.15 K | 794.2 | 1.786
318.15 K | 790.27 | 1.589
323.15 K | 786.3 | 1.427
328.15 K | 782.27 | 1.278
333.15 K | 778.18 | 1.147
338.15 K | 774.03 | 1.032
343.15 K | 769.8 | 0.934
348.15 K | 765.49 | 0.842
353.15 K | 761.12 | 0.762
358.15 K | 756.64 | 0.693
363.15 K | 752.08 | 0.633

CCCCCCO [hexan-1-ol]
[1]
Conditions | mass density [kg/m3] | viscosity [mPa·s]
283.15 K | 825.94 | 7.487
288.15 K | 822.42 | 6.307
293.15 K | 818.88 | 5.348
298.15 K | 815.32 | 4.555
303.15 K | 811.74 | 3.903
308.15 K | 808.13 | 3.361
313.15 K | 804.5 | 2.912
318.15 K | 800.83 | 2.538
323.15 K | 797.12 | 2.228
328.15 K | 793.37 | 1.97
333.15 K | 789.57 | 1.744
338.15 K | 785.72 | 1.553
343.15 K | 781.83 | 1.39
348.15 K | 777.86 | 1.255
353.15 K | 773.86 | 1.125
358.15 K | 769.78 | 1.018
363.15 K | 765.64 | 0.925

CCCCCCO [hexan-1-ol] + CCCCCCCCCCC
[2]
Conditions | mass density [kg/m3] | viscosity [mPa·s]
283.15 K | 825.94 | 7.487
288.15 K | 822.42 | 6.307
293.15 K | 818.88 | 5.348
298.15 K | 815.32 | 4.555
303.15 K | 811.74 | 3.903
308.15 K | 808.13 | 3.361
313.15 K | 804.5 | 2.912
318.15 K | 800.83 | 2.538
323.15 K | 797.12 | 2.228
328.15 K | 793.37 | 1.97
333.15 K | 789.57 | 1.744
338.15 K | 785.72 | 1.553
343.15 K | 781.83 | 1.39
348.15 K | 777.86 | 1.255
353.15 K | 773.86 | 1.125
358.15 K | 769.78 | 1.018
363.15 K | 765.64 | 0.925

CCCCCO [pentan-1-ol]
[1]
Conditions | mass density [kg/m3] | viscosity [mPa·s]
283.15 K | 821.9 | 5.431
288.15 K | 818.3 | 4.655
293.15 K | 814.68 | 4.011
298.15 K | 811.03 | 3.474
303.15 K | 807.37 | 3.023
308.15 K | 803.67 | 2.642
313.15 K | 799.94 | 2.32
318.15 K | 796.17 | 2.045
323.15 K | 792.36 | 1.81
328.15 K | 788.5 | 1.608
333.15 K | 784.59 | 1.434
338.15 K | 780.62 | 1.283
343.15 K | 776.58 | 1.152
348.15 K | 772.49 | 1.038
353.15 K | 768.33 | 0.939
358.15 K | 764.08 | 0.852
363.15 K | 759.77 | 0.776

CCCCCO [pentan-1-ol] + CCCCCCCCCCC
[2]
Conditions | mass density [kg/m3] | viscosity [mPa·s]
283.15 K | 821.9 | 5.431
288.15 K | 818.3 | 4.655
293.15 K | 814.68 | 4.011
298.15 K | 811.03 | 3.474
303.15 K | 807.37 | 3.023
308.15 K | 803.67 | 2.642
313.15 K | 799.94 | 2.32
318.15 K | 796.17 | 2.045
323.15 K | 792.36 | 1.81
328.15 K | 788.5 | 1.608
333.15 K | 784.59 | 1.434
338.15 K | 780.62 | 1.283
343.15 K | 776.58 | 1.152
348.15 K | 772.49 | 1.038
353.15 K | 768.33 | 0.939
358.15 K | 764.08 | 0.852
363.15 K | 759.77 | 0.776

CCCO [propan-1-ol]
[1]
Conditions | mass density [kg/m3] | viscosity [mPa·s]
283.15 K | 811.48 | 2.834
288.15 K | 807.54 | 2.489
293.15 K | 803.58 | 2.195
298.15 K | 799.59 | 1.929
303.15 K | 795.58 | 1.714
308.15 K | 791.53 | 1.536
313.15 K | 787.44 | 1.372
318.15 K | 783.304 | 1.229
323.15 K | 779.11 | 1.113
328.15 K | 774.86 | 1.002
333.15 K | 770.54 | 0.905
338.15 K | 766.15 | 0.819
343.15 K | 761.67 | 0.752
348.15 K | 757.09 | 0.685
353.15 K | 752.44 | 0.625
358.15 K | 747.65 | 0.574
363.15 K | 742.77 | 0.528

CCCO [propan-1-ol] + CCCCCCCCCCC
[2]
Conditions | mass density [kg/m3] | viscosity [mPa·s]
283.15 K | 811.48 | 2.834
288.15 K | 807.54 | 2.489
293.15 K | 803.58 | 2.195
298.15 K | 799.59 | 1.929
303.15 K | 795.58 | 1.714
308.15 K | 791.53 | 1.536
313.15 K | 787.44 | 1.372
318.15 K | 783.304 | 1.229
323.15 K | 779.11 | 1.113
328.15 K | 774.86 | 1.002
333.15 K | 770.54 | 0.905
338.15 K | 766.15 | 0.819
343.15 K | 761.67 | 0.752
348.15 K | 757.09 | 0.685
353.15 K | 752.44 | 0.625
358.15 K | 747.65 | 0.574
363.15 K | 742.77 | 0.528

CCCCCCCCCCC [undecane]
[1]
Conditions | mass density | viscosity [mPa·s]
283.15 K | 747.78 kg/m3 | 1.371
288.15 K | 744.06 kg/m3 | 1.249
293.15 K | 740.35 kg/m3 | 1.145
298.15 K | 736.64 kg/m3 | 1.062
303.15 K | 732.93 kg/m3 | 0.982
308.15 K | 729.23 kg/m3 | 0.91
313.15 K | 725.53 kg/m3 | 0.847
318.15 K | 721.82 kg/m3 and 721.818 kg/m3 | 0.79
323.15 K | 718.11 kg/m3 | 0.74
328.15 K | 714.39 kg/m3 | 0.692
333.15 K | 710.68 kg/m3 | 0.651
338.15 K | 706.95 kg/m3 | 0.615
343.15 K | 703.22 kg/m3 | 0.58
348.15 K | 699.47 kg/m3 | 0.549
353.15 K | 695.72 kg/m3 | 0.522
358.15 K | 691.96 kg/m3 | 0.497
363.15 K | 688.18 kg/m3 | 0.475
